Values belong to the compound of their own block, whether it stands above or below them.
How the values were obtained:
Type in all cases: cell-based
B16 F1 cells = assay: MTT test, cell growth; settings: Mus musculus, mean ± sd of 3 experiments in triplicate, read-out: IC50 (concentration that inhibits 50% of cell growth) ± sd
Excerpt: (§1) Aim: Given the role of tubulin in the formation of the mitotic spindle, we analyzed the effect of the compounds according to the present invention on the cell cycle of the following murine cells using various methods: the murine melanoma tumor cell line, the B16 F1 cell line and the mel a cell line (melanocytes), and the L1210 mouse leukemia cell line.
(§2) We initially evaluated the effect of compounds 17, 18 and 19 on the growth of the three cell lines by a “MTT” test. The principle of the MTT test consists of measuring the activity of mitochondrial succinate dehydrogenase in living cells. This enzyme transforms MTT (3-(4,5-dimethylthiazol-2-yl)-2,5-diphenyltetrazolium bromide), yellow in color, into insoluble purple formazan crystals. After dissolution of the crystals in dimethylsulfoxide (DMSO), absorbance is measured at 540 nm by spectrophotometry. The optical densities obtained are directly proportional to the number of living cells. The cytotoxic effect of a sample is evaluated by the percentage of living cells in the presence of this sample, compared to the cells treated with the solvent alone. This method makes it possible to measure the proportion of living cells in a given cell population. By comparison with untreated cells, we thus determined the concentration of each compound that induces a 50% inhibition of cell growth. The IC50 ranges from 50 μM to 100 μM.

[1] = test system: L1210 mouse leukemia cells; assay: MTT test, cell growth; settings: mean ± sd of 3 experiments in triplicate, read-out: IC50 (concentration that inhibits 50% of cell growth) ± sd
Excerpt: as §1, §2

[2] = test system: mouse leukemia (L1210) cells; assay: Cell cycle progression, flow cytometry after propidium iodide labeling; settings: 24 hours
Experimental: (§3) In order to approach the mechanism of action of these compounds, we then studied their effect on the progression of the cell cycle in mouse melanoma (B16) cells and mouse leukemia (L1210) cells. For this purpose, we compared the distribution of the treated or untreated cells in each phase of the cycle. […] They then were fixed and made permeable with ethanol. After incubation with propidium iodide, which labels cellular DNA, the DNA content of the cells is then analyzed by flow cytometry.

[3] = test system: mouse melanoma (B16) cells; assay: as above; settings: for % of B16 cells in phase G1 / % of B16 cells in phase G2/M / % of B16 cells in phase S: 24 hours
Experimental: as §3

mel a melanocytes = assay: MTT test, cell growth; settings: Mus musculus, Melanocyte, mean ± sd of 3 experiments in triplicate, read-out: IC50 (concentration that inhibits 50% of cell growth) ± sd
Excerpt: as §1, §2

SMILES: CC(C)c1cc(-c2ccccc2N)c(CCCO)n1C(=O)OC(C)(C)C [Compound 17, 3-(2-Amino-phenyl)-2-(3-hydroxy-propyl)-5-isopropyl-pyrrole-1-carboxylic acid tert-butyl ester]
- IC50 (B16 F1 cells): 88.7 ± 7.6 µM
- IC50 [1]: 53.7 ± 0.7 µM
- IC50 (mel a melanocytes): 69.7 ± 0.9 µM
- % of L1210 cells in phase G1 ([2]; 40 μM): 54.9%
- % of L1210 cells in phase G2/M ([2]; 40 μM): 23.2%
- % of L1210 cells in phase S ([2]; 40 μM): 21.9%
- % of L1210 cells in phase G1 ([2]; 50 μM): 39.2%
- % of L1210 cells in phase G2/M ([2]; 50 μM): 43.6%
- % of L1210 cells in phase S ([2]; 50 μM): 17.2%
- % of B16 cells in phase G1 ([3]; 50 μM): 58.0%
- % of B16 cells in phase G2/M ([3]; 50 μM): 25.4%
- % of B16 cells in phase S ([3]; 50 μM): 16.6%
- % of B16 cells in phase G1 ([3]; 70 μM): 40.8%
- % of B16 cells in phase G2/M ([3]; 70 μM): 22.3%
- % of B16 cells in phase S ([3]; 70 μM): 37%
- % of B16 cells in phase G1 ([3]; 100 μM): 43.3%
- % of B16 cells in phase G2/M ([3]; 100 μM): 16.5%
- % of B16 cells in phase S ([3]; 100 μM): 40.3%

SMILES: CC(C)[C@@H](C=O)NC(=O)OC(C)(C)C [compound 2, (S)—N-(tert-Butoxycarbonyl)valinal]
- higher proportion of cells in phase G2/M versus control ([3]; concentrations near IC50 or higher, cell line not stated): approximately 3 times

Further lines, with some results ahead:

- IC50 (B16 F1 cells): 171 ± 10.8 µM
- IC50 [1]: 33.2 ± 1.3 µM
SMILES: CC(C)c1cc(-c2ccccc2)c(CCCO)[nH]1 [Compound 18, 3-(5-Isopropyl-3-phenyl-1H-pyrrol-2-yl)-propan-1-ol]
- % of L1210 cells in phase G1 ([2]; 40 μM): 32.7%
- % of L1210 cells in phase G2/M ([2]; 40 μM): 12.6%
- % of L1210 cells in phase S ([2]; 40 μM): 54.7%
- % of L1210 cells in phase G1 ([2]; 55 μM): 30.9%
- % of L1210 cells in phase G2/M ([2]; 55 μM): 21.9%
- % of L1210 cells in phase S ([2]; 55 μM): 47.2%
- % of B16 cells in phase G1 ([3]; 75 μM): 65.0%
- % of B16 cells in phase G2/M ([3]; 75 μM): 12.1%
- % of B16 cells in phase S ([3]; 75 μM): 11.3%
- % of B16 cells in phase G1 ([3]; 125 μM): 50.0%
- % of B16 cells in phase G2/M ([3]; 125 μM): 32.0%
- % of B16 cells in phase S ([3]; 125 μM): 5.2%
- % of B16 cells in phase G1 ([3]; 150 μM): 42.1%
- % of B16 cells in phase G2/M ([3]; 150 μM): 36.0%
- % of B16 cells in phase S ([3]; 150 μM): 21.8%

- IC50 (B16 F1 cells): > 400 µM
- IC50 [1]: > 400 µM
SMILES: CC(C)c1ccc(CCCO)[nH]1 [Compound 21, 3-(5-Isopropyl-1H-pyrrol-2-yl)-propan-1-ol]

- IC50 (B16 F1 cells): 107 ± 1.8 µM
- IC50 [1]: 17.7 ± 4.5 µM
SMILES: CC(C)c1cc(-c2ccccc2N)c(CCCO)[nH]1 [Compound 19, 3-[3-(2-Amino-phenyl)-5-isopropyl-1H-pyrrol-2-yl]-propan-1-ol]
- IC50 (mel a melanocytes): 116 ± 3.2 µM
- % of L1210 cells in phase G1 ([2]; 50 μM): 49.5%
- % of L1210 cells in phase G2/M ([2]; 50 μM): 24%
- % of L1210 cells in phase S ([2]; 50 μM): 26.5%
- % of L1210 cells in phase G1 ([2]; 75 μM): 39.8%
- % of L1210 cells in phase G2/M ([2]; 75 μM): 38.8%
- % of L1210 cells in phase S ([2]; 75 μM): 21.4%
- % of B16 cells in phase G1 ([3]; 50 μM): 78.7%
- % of B16 cells in phase G2/M ([3]; 50 μM): 5.2%
- % of B16 cells in phase S ([3]; 50 μM): 14.1%
- % of B16 cells in phase G1 ([3]; 75 μM): 56.1%
- % of B16 cells in phase G2/M ([3]; 75 μM): 31.9%
- % of B16 cells in phase S ([3]; 75 μM): 2.8%

Reference: patent publication US8106089B2, “Anti-tubulin acting arylpyrrol, arylfuran and arylthiophene derivatives, method for the preparation thereof and for the use thereof as an antimitotic” (Centre National de la Recherche, priority 2004, dated 2012)
